Results from PubChem BioAssay AID1963975 (Molecular Pharmacology Branch, DTP, NCI, 2024).

Test system: 624824-186-R-J2-PDC multicell spheroids, viability
Assay: Anticancer human tumor 624824-186-R-J2-PDC patient-derived colon adenocarcinoma cell line growth inhibition [PI3K]
Conditions: for IC50: curve of first compound; for viability, T/C: stronger effect = lower value
Description: Combinatorial screen of targeted agents with the PI3K inhibitors inavolisib, alpelisib, duvelisib, and copanlisib in multi-cell type tumor spheroids
A high-throughput screen of multi-cell type tumor spheroids was designed to identify active combinations of targeted small molecules and PI3K pathway inhibitors. Complex spheroids include a stromal component modeled by human endothelial cells (HUVEC) and fibroblasts modeled by human mesenchymal stem cells (MSCs). The concentration ranges selected for each drug and investigational agent were based upon clinically achievable concentrations if the clinical Cmax of the agent was known.
Compounds. The drugs and investigational agents: inavolisib (NSC800729), alpelisib (NSC765974), duvelisib (NSC772469), copanlisib (NSC816437), ipatasertib (NSC767898), afuresertib (NSC778305), talazoparib (NSC767125), sapanisertib (NSC764658), selumetinib (NSC741078), tovorafenib (DAY101, NSC766906), vemurafenib (NSC761431), ravoxertinib (NSC781343), sotorasib (NSC818433), MRTX1133 (NSC 836407), abemaciclib (NSC 768073), palbociclib (NSC758247), venetoclax (NSC 766270), SY5609 (NSC837396), enzalutamide (NSC755605), and darolutamide (NSC825331), were obtained from the National Cancer Institute (NCI) Developmental Therapeutics Program Chemical Repository. The FDA-approved anticancer drug set is available from the NCI Developmental Therapeutics Program. […] The stock solutions were prepared in dimethyl sulfoxide (DMSO, Sigma-Aldrich, St. Louis, MO, cat. D2650) at 800-fold the tested concentration and stored at -70 degrees C prior to their use. All drugs and investigational agents were tested over a range starting from a high concentration at or near the clinical Cmax and decreasing in half-log increments. If the clinical Cmax for an agent had not been determined, the highest concentration tested was 10 microM.
Cell Culture. All cells were maintained in an incubator at 37 degrees C and 5% CO2 with 95% humidity. The PDC lines were cultured according to standard operating procedures established by the NCI PDMR (https://pdmr.cancer.gov/sops/default.htm). All PDCs were thawed and cultured in Matrigel-coated flasks prepared with a working solution of 1X Ham's F-12 nutrient mix, without supplementation (Invitrogen, Waltham, MA, cat. 11765054), 100 U/mL penicillin-streptomycin (Invitrogen, cat. 15140122), and 2.5% Matrigel (Corning Inc., Corning, NY, cat. 354248) for the first three passages. The 354836-022-R-J1-PDC, 475296-252-R-J1-PDC, and 997726-040-R-J2-PDC lines were cultured in 6A media, which includes advanced DMEM/F-12 (Thermo Fisher Scientific, cat. 12634028), 10 mM HEPES (Thermo Fisher Scientific, cat. 15630080), 1X GlutaMAX supplement (Thermo Fisher Scientific, cat. 35050061), 0.1 mg/mL primocin (InvivoGen, San Diego, CA, cat. ant-pm-2), 10% defined fetal bovine serum, heat inactivated (HyClone Laboratories Inc., Logan, UT, cat. SH30070.03HI), 50% L-WRN conditioned media (ATCC, cat. CRL-3276), 1.25 mM N-Acetyl-L-cysteine (Sigma-Aldrich, cat. A9165), 10 mM nicotinamide (Sigma-Aldrich, cat. N0636), 1X B-27 supplement (Thermo Fisher Scientific, cat. 17504044), 1X N-2 supplement (Thermo Fisher Scientific, cat. 17502048), and 10 microM Y-27632 dihydrochloride (Tocris Bioscience, Bristol, United Kingdom, cat. 1254). The 624824-186-R-J2-PDC line was cultured in 6C/Colon 1B media, which includes all 6A media components plus 50 ng/mL human EGF recombinant protein (Thermo Fisher Scientific, cat. PHG0311). […]

[1] = second compound 0.00316 µM, first compound 0.0316 µM
[2] = second compound 0.00316 µM, first compound 0.1 µM
[3] = second compound 0.00316 µM, first compound 0.316 µM
[4] = second compound 0.00316 µM, first compound 1 µM
[5] = second compound 0.00316 µM, first compound 3.16 µM
[6] = second compound 0.00316 µM, first compound 10 µM
[7] = second compound 0.01 µM, first compound 0.0316 µM
[8] = second compound 0.01 µM, first compound 0.1 µM
[9] = second compound 0.01 µM, first compound 0.316 µM
[10] = second compound 0.01 µM, first compound 1 µM
[11] = second compound 0.01 µM, first compound 3.16 µM
[12] = second compound 0.01 µM, first compound 10 µM
[13] = second compound 0.0316 µM, first compound 0.0316 µM
[14] = second compound 0.0316 µM, first compound 0.1 µM
[15] = second compound 0.0316 µM, first compound 0.316 µM
[16] = second compound 0.0316 µM, first compound 1 µM
[17] = second compound 0.0316 µM, first compound 3.16 µM
[18] = second compound 0.0316 µM, first compound 10 µM
[19] = second compound 0.1 µM, first compound 0.0316 µM
[20] = second compound 0.1 µM, first compound 0.1 µM
[21] = second compound 0.1 µM, first compound 0.316 µM
[22] = second compound 0.1 µM, first compound 1 µM
[23] = second compound 0.1 µM, first compound 3.16 µM
[24] = second compound 0.1 µM, first compound 10 µM
[25] = second compound 0.316 µM, first compound 0.0316 µM
[26] = second compound 0.316 µM, first compound 0.1 µM
[27] = second compound 0.316 µM, first compound 0.316 µM
[28] = second compound 0.316 µM, first compound 1 µM
[29] = second compound 0.316 µM, first compound 3.16 µM
[30] = second compound 0.316 µM, first compound 10 µM
[31] = second compound 1 µM, first compound 0.0316 µM
[32] = second compound 1 µM, first compound 0.1 µM
[33] = second compound 1 µM, first compound 0.316 µM
[34] = second compound 1 µM, first compound 1 µM
[35] = second compound 1 µM, first compound 3.16 µM
[36] = second compound 1 µM, first compound 10 µM
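Also: spheroids exposed to agents for 7 days before viability read.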
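For viability, T/C in this document: 100% = DMSO vehicle treated spheroids.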

With `Cn1ncc(Cl)c1-c1cc(C(=O)NC(CN)Cc2cccc(F)c2)sc1Cl` (centres undefined) + CC(Nc1ccc2c(c1)OCCn1cc(N3C(=O)OCC3C(F)F)nc1-2)C(N)=O the IC50 (second compound 0.00316 µM) was > 10 µM, the IC50 (second compound 0.01 µM) was > 10 µM and the IC50 (second compound 0.0316 µM) was > 10 µM. The IC50 (second compound 0.1 µM) was > 10 µM, the IC50 (second compound 0.316 µM) was > 10 µM and the IC50 (second compound 1 µM) was > 10 µM. For the same molecule, the viability, T/C [1] was 106%, the viability, T/C [2] was 97.5% and the viability, T/C [3] was 75.8%. It also gave a viability, T/C [4] of 87.1%, a viability, T/C [5] of 67.7% and a viability, T/C [6] of 78.8%. For the same molecule, the viability, T/C [7] was 107%, the viability, T/C [8] was 78.8% and the viability, T/C [9] was 70.9%. It also gave a viability, T/C [10] of 78.8%, a viability, T/C [11] of 79.6% and a viability, T/C [12] of 50.4%. It also gave a viability, T/C [13] of 101%, a viability, T/C [14] of 71.9% and a viability, T/C [15] of 75.7%. The viability, T/C [16] was 85.9%, the viability, T/C [17] was 78.7% and the viability, T/C [18] was 58.8%. It also gave a viability, T/C [19] of 75%, a viability, T/C [20] of 100% and a viability, T/C [21] of 74.5%. The viability, T/C [22] was 81.8%, the viability, T/C [23] was 76.9% and the viability, T/C [24] was 53.1%. The viability, T/C [25] was 71.3%, the viability, T/C [26] was 81.5% and the viability, T/C [27] was 92.6%. For the same molecule, the viability, T/C [28] was 85.1%, the viability, T/C [29] was 75.4% and the viability, T/C [30] was 57.3%. For the same molecule, the viability, T/C [31] was 86.7%, the viability, T/C [32] was 77.8% and the viability, T/C [33] was 95.4%. It also gave a viability, T/C [34] of 76.7%, a viability, T/C [35] of 75.7% and a viability, T/C [36] of 59.3%.

With `Cn1nccc1Nc1nccc(-c2ccn(C(CO)c3ccc(Cl)c(F)c3)c(=O)c2)n1` (centres undefined) + CC(Nc1ccc2c(c1)OCCn1cc(N3C(=O)OCC3C(F)F)nc1-2)C(N)=O the IC50 (second compound 0.00316 µM) was > 10 µM, the IC50 (second compound 0.01 µM) was > 10 µM and the IC50 (second compound 0.0316 µM) was > 10 µM. The IC50 (second compound 0.1 µM) was > 10 µM, the IC50 (second compound 0.316 µM) was > 10 µM and the IC50 (second compound 1 µM) was 1.33 µM. It also gave a viability, T/C [1] of 79.4%, a viability, T/C [2] of 78.9% and a viability, T/C [3] of 80.1%. The viability, T/C [4] was 84.7%, the viability, T/C [5] was 104% and the viability, T/C [6] was 99.5%. For the same molecule, the viability, T/C [7] was 80.5%, the viability, T/C [8] was 73.6% and the viability, T/C [9] was 77.6%. For the same molecule, the viability, T/C [10] was 90.5%, the viability, T/C [11] was 102% and the viability, T/C [12] was 116%. The viability, T/C [13] was 79%, the viability, T/C [14] was 71.8% and the viability, T/C [15] was 72%. The viability, T/C [16] was 91.6%, the viability, T/C [17] was 86.6% and the viability, T/C [18] was 93.2%. The viability, T/C [19] was 87.5%, the viability, T/C [20] was 61.4% and the viability, T/C [21] was 68.8%. The viability, T/C [22] was 95.6%, the viability, T/C [23] was 84.9% and the viability, T/C [24] was 59%. The viability, T/C [25] was 63%, the viability, T/C [26] was 63.5% and the viability, T/C [27] was 68.6%. It also gave a viability, T/C [28] of 73.7%, a viability, T/C [29] of 63.9% and a viability, T/C [30] of 40.4%. For the same molecule, the viability, T/C [31] was 73.1%, the viability, T/C [32] was 86.4% and the viability, T/C [33] was 61%. It also gave a viability, T/C [34] of 52.9%, a viability, T/C [35] of 42.5% and a viability, T/C [36] of 29%.
